Data taken from paper PMC9851200, “Multiparameter phenotypic screening for endogenous TFEB and TFE3 translocation identifies novel chemical series modulating lysosome function” (Autophagy, 2022).

Tests used:
Assay type in all cases: binding
[1] = target: kinases (KINOMEscan panel) (Homo sapiens, UniProt O75716); settings: kinase STK16; NEW KINOMEscan
[2] = target: kinases (KINOMEscan panel) (Homo sapiens, UniProt P06213); settings: kinase INSR; NEW KINOMEscan
[3] = target: T1, kinases (KINOMEscan panel) (Homo sapiens, UniProt P29320); settings: kinase EPHA3; NEW KINOMEscan
T1 sequence (P29320 21-983): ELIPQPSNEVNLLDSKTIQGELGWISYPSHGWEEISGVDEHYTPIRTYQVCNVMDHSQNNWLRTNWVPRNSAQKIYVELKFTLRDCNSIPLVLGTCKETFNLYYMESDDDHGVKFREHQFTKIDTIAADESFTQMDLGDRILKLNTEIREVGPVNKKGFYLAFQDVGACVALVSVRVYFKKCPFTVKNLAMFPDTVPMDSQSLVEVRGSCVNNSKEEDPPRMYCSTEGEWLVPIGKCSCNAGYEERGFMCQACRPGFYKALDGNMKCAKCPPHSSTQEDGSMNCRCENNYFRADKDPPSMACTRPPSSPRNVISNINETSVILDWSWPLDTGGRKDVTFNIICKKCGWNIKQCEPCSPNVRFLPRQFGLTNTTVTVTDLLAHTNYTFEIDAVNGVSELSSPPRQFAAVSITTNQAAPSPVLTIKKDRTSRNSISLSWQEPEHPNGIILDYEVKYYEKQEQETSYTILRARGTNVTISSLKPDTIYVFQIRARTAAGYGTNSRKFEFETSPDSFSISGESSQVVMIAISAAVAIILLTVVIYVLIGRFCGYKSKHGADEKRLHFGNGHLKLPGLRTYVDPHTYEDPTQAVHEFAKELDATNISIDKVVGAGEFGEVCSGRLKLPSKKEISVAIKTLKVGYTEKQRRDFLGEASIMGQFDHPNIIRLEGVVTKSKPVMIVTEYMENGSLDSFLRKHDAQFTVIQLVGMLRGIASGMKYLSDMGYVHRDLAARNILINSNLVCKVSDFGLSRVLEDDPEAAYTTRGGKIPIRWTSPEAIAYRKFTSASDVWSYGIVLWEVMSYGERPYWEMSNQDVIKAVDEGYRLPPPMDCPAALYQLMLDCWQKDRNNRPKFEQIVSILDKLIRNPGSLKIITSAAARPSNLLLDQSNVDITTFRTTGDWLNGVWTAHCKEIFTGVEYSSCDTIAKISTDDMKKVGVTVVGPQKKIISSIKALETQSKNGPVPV

[4] = target: kinases (KINOMEscan panel) (Homo sapiens, UniProt P29597); settings: NEW KINOMEscan; for KINOMEscan TYK2(JH1domain-catalytic): kinase TYK2(JH1domain-catalytic)
Sequence of kinases (KINOMEscan panel) (Homo sapiens, UniProt P29597) (P29597 whole entry): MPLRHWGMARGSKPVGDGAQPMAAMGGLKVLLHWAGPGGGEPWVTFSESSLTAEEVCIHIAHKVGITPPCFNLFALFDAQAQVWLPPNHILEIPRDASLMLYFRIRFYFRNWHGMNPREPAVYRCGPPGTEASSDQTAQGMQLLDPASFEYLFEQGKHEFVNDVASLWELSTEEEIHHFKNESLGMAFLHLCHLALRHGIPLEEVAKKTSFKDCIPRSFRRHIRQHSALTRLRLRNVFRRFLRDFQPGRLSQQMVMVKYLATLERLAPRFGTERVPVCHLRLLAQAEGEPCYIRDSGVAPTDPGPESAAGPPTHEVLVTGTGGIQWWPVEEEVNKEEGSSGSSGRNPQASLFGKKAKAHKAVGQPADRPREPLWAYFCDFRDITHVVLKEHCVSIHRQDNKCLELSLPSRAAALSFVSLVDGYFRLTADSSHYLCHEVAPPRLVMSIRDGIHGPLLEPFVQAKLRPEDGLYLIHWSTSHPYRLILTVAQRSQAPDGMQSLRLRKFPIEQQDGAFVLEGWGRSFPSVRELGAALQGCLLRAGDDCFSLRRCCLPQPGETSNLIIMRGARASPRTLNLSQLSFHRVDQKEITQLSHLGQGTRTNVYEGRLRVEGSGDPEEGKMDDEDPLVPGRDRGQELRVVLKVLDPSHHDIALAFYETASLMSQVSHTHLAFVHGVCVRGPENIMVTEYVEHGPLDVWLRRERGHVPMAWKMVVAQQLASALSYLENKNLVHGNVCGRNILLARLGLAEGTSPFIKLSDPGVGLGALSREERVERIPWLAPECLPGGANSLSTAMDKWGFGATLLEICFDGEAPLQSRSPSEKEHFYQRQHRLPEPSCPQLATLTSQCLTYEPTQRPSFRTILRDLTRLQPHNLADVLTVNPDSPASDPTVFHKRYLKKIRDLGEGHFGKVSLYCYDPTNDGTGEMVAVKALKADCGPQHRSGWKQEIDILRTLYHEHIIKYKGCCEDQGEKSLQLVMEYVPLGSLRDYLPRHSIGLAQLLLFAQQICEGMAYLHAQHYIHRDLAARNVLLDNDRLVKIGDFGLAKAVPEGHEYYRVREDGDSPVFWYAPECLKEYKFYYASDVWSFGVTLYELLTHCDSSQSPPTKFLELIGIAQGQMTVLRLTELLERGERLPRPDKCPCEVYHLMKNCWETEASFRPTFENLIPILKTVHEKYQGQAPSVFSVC

[5] = target: kinases (KINOMEscan panel) (Homo sapiens, UniProt P51957); settings: kinase NEK4; NEW KINOMEscan
[6] = target: T2, kinases (KINOMEscan panel) (Homo sapiens, UniProt P57058); settings: kinase HUNK; NEW KINOMEscan
T2 sequence (P57058 1-714): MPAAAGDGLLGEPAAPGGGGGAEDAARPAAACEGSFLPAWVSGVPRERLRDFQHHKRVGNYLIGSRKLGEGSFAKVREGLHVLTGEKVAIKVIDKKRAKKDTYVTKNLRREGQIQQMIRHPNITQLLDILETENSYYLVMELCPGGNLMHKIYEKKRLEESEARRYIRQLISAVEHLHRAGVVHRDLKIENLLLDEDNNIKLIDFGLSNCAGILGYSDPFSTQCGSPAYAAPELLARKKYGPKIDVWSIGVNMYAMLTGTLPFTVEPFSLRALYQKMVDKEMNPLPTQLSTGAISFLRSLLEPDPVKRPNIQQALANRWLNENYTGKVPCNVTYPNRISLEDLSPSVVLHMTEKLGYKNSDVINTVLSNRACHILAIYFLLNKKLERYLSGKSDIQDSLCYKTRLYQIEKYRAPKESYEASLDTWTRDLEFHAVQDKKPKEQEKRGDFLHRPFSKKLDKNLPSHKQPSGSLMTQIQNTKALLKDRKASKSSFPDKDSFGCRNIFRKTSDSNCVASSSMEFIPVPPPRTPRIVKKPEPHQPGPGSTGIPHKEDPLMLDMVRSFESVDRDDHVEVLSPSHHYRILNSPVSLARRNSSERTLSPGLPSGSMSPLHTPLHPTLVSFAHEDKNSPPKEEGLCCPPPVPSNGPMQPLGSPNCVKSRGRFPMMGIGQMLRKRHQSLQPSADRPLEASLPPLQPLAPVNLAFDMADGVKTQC

[7] = target: kinases (KINOMEscan panel) (Homo sapiens, UniProt Q08345); settings: DDR1; NEW KINOMEscan
[8] = target: T3, kinases (KINOMEscan panel) (Homo sapiens, UniProt Q13546); settings: kinase RIPK1; NEW KINOMEscan
T3 sequence (Q13546 1-671): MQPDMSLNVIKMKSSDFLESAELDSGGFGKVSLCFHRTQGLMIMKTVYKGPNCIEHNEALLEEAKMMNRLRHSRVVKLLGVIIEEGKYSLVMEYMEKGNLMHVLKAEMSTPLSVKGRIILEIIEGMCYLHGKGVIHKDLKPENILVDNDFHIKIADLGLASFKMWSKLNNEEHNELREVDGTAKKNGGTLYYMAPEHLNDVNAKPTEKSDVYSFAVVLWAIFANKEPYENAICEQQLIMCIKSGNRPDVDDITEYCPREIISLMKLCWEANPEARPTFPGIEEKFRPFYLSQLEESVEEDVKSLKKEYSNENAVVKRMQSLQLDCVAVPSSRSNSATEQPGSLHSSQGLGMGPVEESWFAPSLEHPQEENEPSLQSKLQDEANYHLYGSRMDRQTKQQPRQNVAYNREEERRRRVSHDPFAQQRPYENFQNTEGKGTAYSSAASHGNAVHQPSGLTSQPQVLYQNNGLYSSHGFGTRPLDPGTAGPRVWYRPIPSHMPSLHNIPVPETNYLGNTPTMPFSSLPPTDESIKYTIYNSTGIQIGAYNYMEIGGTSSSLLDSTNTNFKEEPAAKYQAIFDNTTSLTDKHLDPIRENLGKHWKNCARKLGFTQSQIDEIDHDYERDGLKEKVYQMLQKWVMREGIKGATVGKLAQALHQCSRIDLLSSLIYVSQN

[9] = target: kinases (KINOMEscan panel) (Homo sapiens, UniProt Q8NEV4); settings: kinase MYO3A; NEW KINOMEscan
[10] = target: kinases (KINOMEscan panel) (Homo sapiens, UniProt Q9Y6R4); settings: MAP3K4; NEW KINOMEscan
Sequence of kinases (KINOMEscan panel) (Homo sapiens, UniProt Q9Y6R4) (Q9Y6R4 whole entry): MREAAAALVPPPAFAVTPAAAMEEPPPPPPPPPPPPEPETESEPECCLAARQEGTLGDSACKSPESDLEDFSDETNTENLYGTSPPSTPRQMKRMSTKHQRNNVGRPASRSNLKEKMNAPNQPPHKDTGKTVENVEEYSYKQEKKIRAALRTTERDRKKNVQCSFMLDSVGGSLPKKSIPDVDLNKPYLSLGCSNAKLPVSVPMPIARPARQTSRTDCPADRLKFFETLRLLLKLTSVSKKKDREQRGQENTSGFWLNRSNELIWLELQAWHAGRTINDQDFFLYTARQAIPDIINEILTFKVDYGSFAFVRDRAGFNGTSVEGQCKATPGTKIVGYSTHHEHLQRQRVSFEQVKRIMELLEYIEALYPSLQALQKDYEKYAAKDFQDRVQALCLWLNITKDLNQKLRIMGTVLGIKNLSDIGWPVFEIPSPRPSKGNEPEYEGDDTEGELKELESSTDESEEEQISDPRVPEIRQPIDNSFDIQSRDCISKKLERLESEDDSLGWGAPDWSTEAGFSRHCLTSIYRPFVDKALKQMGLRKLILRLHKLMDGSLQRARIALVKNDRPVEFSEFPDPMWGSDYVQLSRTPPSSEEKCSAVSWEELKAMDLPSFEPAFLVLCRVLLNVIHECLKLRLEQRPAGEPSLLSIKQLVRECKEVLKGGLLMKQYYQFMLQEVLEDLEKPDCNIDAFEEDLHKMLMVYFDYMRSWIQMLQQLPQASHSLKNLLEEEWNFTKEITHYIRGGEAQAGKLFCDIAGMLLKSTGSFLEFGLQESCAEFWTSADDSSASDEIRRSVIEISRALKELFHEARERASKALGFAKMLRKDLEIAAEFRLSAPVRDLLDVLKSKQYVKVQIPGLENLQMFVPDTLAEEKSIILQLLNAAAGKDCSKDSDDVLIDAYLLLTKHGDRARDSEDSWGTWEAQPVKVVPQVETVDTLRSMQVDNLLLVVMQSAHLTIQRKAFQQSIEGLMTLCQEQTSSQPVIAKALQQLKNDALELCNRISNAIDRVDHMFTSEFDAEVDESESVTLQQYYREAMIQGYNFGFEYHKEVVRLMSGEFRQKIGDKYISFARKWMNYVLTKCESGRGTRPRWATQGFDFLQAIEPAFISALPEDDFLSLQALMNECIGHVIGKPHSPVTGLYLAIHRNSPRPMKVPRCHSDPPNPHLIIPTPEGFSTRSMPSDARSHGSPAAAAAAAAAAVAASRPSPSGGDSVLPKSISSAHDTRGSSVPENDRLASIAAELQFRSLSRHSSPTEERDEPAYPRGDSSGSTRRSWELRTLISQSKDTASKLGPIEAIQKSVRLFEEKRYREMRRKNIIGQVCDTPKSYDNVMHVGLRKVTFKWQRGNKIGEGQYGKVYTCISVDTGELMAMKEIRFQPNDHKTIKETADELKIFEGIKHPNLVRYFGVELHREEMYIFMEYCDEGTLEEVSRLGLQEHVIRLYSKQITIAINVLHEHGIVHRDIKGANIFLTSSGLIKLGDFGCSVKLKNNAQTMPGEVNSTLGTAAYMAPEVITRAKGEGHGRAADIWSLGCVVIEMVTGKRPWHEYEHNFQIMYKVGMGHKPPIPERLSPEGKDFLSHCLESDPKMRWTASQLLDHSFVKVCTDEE

Sequence of kinases (KINOMEscan panel) (Homo sapiens, UniProt P06213) (P06213 28-1382): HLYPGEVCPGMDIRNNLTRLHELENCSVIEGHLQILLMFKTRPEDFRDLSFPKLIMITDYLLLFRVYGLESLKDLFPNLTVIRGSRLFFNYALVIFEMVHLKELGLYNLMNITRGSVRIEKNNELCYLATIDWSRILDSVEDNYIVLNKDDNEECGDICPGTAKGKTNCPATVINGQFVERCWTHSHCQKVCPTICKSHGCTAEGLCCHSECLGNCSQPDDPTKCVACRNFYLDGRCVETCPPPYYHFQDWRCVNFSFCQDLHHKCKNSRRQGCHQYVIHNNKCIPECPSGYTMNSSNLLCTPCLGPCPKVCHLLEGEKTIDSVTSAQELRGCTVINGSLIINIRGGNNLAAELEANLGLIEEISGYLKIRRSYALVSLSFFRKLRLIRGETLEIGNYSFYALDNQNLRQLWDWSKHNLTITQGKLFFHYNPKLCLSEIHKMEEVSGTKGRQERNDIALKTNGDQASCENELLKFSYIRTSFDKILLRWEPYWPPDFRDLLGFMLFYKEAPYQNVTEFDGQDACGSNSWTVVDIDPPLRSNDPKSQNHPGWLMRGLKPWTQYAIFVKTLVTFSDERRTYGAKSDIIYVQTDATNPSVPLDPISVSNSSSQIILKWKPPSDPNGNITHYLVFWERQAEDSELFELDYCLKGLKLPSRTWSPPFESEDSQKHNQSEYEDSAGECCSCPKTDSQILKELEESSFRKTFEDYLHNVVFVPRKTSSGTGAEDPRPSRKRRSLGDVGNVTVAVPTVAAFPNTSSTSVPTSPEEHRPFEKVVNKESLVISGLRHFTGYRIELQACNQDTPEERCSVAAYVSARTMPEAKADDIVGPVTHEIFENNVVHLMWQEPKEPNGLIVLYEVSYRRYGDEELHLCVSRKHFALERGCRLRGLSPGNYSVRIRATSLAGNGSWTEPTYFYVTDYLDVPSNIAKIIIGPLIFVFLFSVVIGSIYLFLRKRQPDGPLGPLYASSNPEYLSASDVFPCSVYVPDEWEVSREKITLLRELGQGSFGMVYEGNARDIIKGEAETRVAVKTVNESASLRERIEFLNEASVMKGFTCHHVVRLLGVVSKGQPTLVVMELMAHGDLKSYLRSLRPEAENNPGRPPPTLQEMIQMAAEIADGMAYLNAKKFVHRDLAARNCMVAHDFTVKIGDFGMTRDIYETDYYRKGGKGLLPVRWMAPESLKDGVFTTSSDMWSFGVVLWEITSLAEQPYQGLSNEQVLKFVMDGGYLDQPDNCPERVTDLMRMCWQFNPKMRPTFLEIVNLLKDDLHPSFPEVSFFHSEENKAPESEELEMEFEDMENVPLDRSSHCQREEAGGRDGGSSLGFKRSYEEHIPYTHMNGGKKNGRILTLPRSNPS
Sequence of kinases (KINOMEscan panel) (Homo sapiens, UniProt O75716) (O75716 whole entry): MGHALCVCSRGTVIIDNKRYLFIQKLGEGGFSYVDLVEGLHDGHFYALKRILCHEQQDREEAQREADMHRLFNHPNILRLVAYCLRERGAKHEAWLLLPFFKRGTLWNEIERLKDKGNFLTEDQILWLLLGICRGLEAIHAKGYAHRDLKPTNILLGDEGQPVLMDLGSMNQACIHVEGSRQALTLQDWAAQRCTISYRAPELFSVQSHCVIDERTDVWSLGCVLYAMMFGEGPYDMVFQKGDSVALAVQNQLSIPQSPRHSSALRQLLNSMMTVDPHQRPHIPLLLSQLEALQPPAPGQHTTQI

Structure (SMILES) | KINOMEscan STK16 [1] | KINOMEscan INSR [2] | KINOMEscan EPHA3 [3] | KINOMEscan TYK2(JH2domain-pseudokinase) [4] | KINOMEscan TYK2(JH1domain-catalytic) [4] | KINOMEscan NEK4 [5] | KINOMEscan HUNK [6] | KINOMEscan DDR1 [7] | KINOMEscan RIPK1 [8] | KINOMEscan MYO3A [9] | KINOMEscan MAP3K4 [10]
Cc1cccc(-c2nc(Nc3ccc4nn(C)cc4c3)c3ccccc3n2)n1 [NK167] | 19 | 0 | 0 | 0 | 0 | 0 | 0 | 0 | 2 | 0 | 3
Cc1cccc(-c2nc(N(C)c3ccc4ncsc4c3)c3ccccc3n2)n1 [NK-161] | 15 | 2 | 0 | 12 | 0 | 5 | 4 | 0 | 0 | 0 | 0
